According to paper PMC11987438, “A novel approach utilizing spirocyclic thiopyrimidinone compounds against herpes simplex virus with underlying antiviral mechanisms of action” (Virology Journal, 2025):
Converted amounts (≈) assume the structure as drawn. “Also recorded” adds a separate entry of the source.

Legend:
[1] = system: herpes simplex virus type 2 (HSV-2); assay: Inhibition mechanism of action: virus adsorption; type: cell-based, human herpes simplex virus type 2; details: Vero cells pretreated with compound at safe concentration 1 h at 4 °C, then HSV-2 MOI = 1, 72 h, MTT
Experimental: To gain a better understanding of how each compound’s antiviral activity inhibits specific steps in the viral cycle, we investigated three mechanisms: virus adsorption, virus replication, and viral fusion (virucidal). For the adsorption mechanism, we seeded 100 µl of cell suspension into 96-well cell culture plates under the previously mentioned conditions. After 24 h, the medium was discarded, and the adherent cells were washed with 1x PBS. Then, we added 100 µl of each promising compound at a pretested safe cytotoxic concentration (CC50) to the cells in triplicate. The plates were then incubated at 4 °C for 1 h to allow the compounds to adsorb onto the cell receptors. After incubation, the compound was removed, and the cells were washed again with 1x PBS. Next, we added 100 µl of the virus mixture (MOI = 1) to each well and incubated it for 1 h at 37 °C in a CO2 incubator. The virus was removed, and the cells were washed once more with 1x PBS. Finally, we added 100 µl of maintenance media containing 3% bovine serum albumin (BSA) and incubated the plates for 72 h at 37 °C in a 5% CO2 incubator. For the replication mechanism, we added 100 µl of diluted virus (MOI = 1) to a preseeded 96-well cell culture plate and incubated it for 1 h at 37 °C in a CO2 incubator. […] Finally, we measured the absorbance at λ = 570 nm via a plate reader (FLUOstar Omega Ω).

[2] = system: herpes simplex virus type 2 (HSV-2); assay: Antiviral activity screening by MTT; type: cell-based, human herpes simplex virus type 2; details: for IC50: Human alphaherpesvirus 2, HSV-2 (MOI = 1) in Vero cells, 72 h, MTT; for SI: selectivity index, CC50 (Vero) / IC50 (HSV-2)
Experimental: In accordance with the previous section, the CC50 (50% cytotoxic concentration) of each compound was determined as the starting point for screening its antiviral activity. A volume of 100 µL of cell suspension containing 10^4 cells was added to each well of a 96-well plate. The plates with the cells were then placed in a 5% humidified CO2 incubator at 37 °C for 24 h to allow the cells to adhere and form a monolayer. The cell monolayers were subsequently washed once with 1x phosphate-buffered saline (PBS) and infected with herpes simplex virus type 2 (HSV-2) (MOI = 1) in triplicate for 1 h. After the infection period, 100 µL of each compound’s serial dilution was added to the infected cells. A triplicate of untreated infected cells was included as a positive control (VC), and the mixture was incubated for 72 h at 37 °C in a 5% CO2 incubator. Following the 72-hour incubation, the supernatant medium was removed, and the cell monolayers were washed with 1x PBS. Then, 25 µL of a 0.5 mg/mL solution of MTT (3-(4,5-dimethylthiazol-2-yl)-2,5-diphenyltetrazolium bromide) obtained from Sigma‒Aldrich, Saint Louis, MO, USA, was added to each well and incubated for 2 h at 37 °C. The MTT reagent was subsequently discarded, and 200 µL of acidified isopropanol (1 N HCl in 99.9% isopropanol) was added to dissolve the formazan crystals formed by the viable cells. Finally, the color intensity was measured, and the absorbance was recorded via an ELISA plate reader. The data obtained were used to calculate the IC50 values (50% inhibitory concentration) via nonlinear regression analysis. This was accomplished by plotting the logarithm of the inhibitor concentration against the normalized response. The analysis was performed via GraphPad Prism 5 analysis software.

[3] = system: herpes simplex virus type 2 (HSV-2); assay: Inhibition mechanism of action: virus replication; type: cell-based, human herpes simplex virus type 2; details: Vero cells infected with HSV-2 MOI = 1 for 1 h, then compound, 72 h, MTT
Experimental: (§1) To gain a better understanding of how each compound’s antiviral activity inhibits specific steps in the viral cycle, we investigated three mechanisms: virus adsorption, virus replication, and viral fusion (virucidal). For the adsorption mechanism, we seeded 100 µl of cell suspension into 96-well cell culture plates under the previously mentioned conditions. After 24 h, the medium was discarded, and the adherent cells were washed with 1x PBS. Then, we added 100 µl of each promising compound at a pretested safe cytotoxic concentration (CC50) to the cells in triplicate. The plates were then incubated at 4 °C for 1 h to allow the compounds to adsorb onto the cell receptors. After incubation, the compound was removed, and the cells were washed again with 1x PBS. Next, we added 100 µl of the virus mixture (MOI = 1) to each well and incubated it for 1 h at 37 °C in a CO2 incubator. The virus was removed, and the cells were washed once more with 1x PBS. Finally, we added 100 µl of maintenance media containing 3% bovine serum albumin (BSA) and incubated the plates for 72 h at 37 °C in a 5% CO2 incubator. For the replication mechanism, we added 100 µl of diluted virus (MOI = 1) to a preseeded 96-well cell culture plate and incubated it for 1 h at 37 °C in a CO2 incubator. After incubation, the virus was removed, and 100 µl of each compound was added in triplicate. The plates were then incubated for 1 h at 37 °C in a CO2 incubator. Next, 100 µl of maintenance medium was added to each well. For the virucidal mechanism, we mixed an equal volume of the safe concentration of the pretested compound with the virus dilution (MOI = 1) and incubated the mixture at room temperature for 1 h. We subsequently prepared twofold serial dilutions of the mixture and inoculated them into the cells, which were then incubated for 1 h at 37 °C in a CO2 incubator. After incubation, the supernatant was removed, the cells were washed, and 100 µl of maintenance media was added. […] Finally, we measured the absorbance at λ = 570 nm via a plate reader (FLUOstar Omega Ω).

[4] = system: Caspase-3 protein expression; assay: Western blot of Caspase-3 protein expression in HSV-2-infected Vero cells; type: cell-based, African green monkey; details: HSV-2-infected Vero cells (MOI = 1) treated at IC50; 1, 3, 6, 12 and 24 h postinfection
Experimental: A 3 ml cell suspension was cultured in six-well cell culture plates supplemented with complete DMEM and then incubated at 37 °C in a 5% CO2 incubator for 24 h. After incubation, the supernatant was discarded, and the cell monolayer was washed with 3 ml of 1x PBS. The cell monolayer was then treated in duplicate according to the IC50. Duplicates for cell and virus control were included. The cell pellets were collected at 1, 3, 6, 12, and 24 h postinfection. The cell pellets were lysed with ice-cold RIPA lysis buffer supplemented with fresh protease inhibitor cocktail, incubated for 30 min on ice, and centrifuged at 15,000 RPM at 4 °C for 20 min, after which the supernatant was transferred to a fresh tube. The total water-soluble protein concentration was quantified via a bicinchoninic acid protein assay kit (Micro BCA™ Protein Assay Kit, REF: 23235; Thermo Scientific). Ten micrograms of protein were loaded in 2x Laemmli buffer and separated via 12% sodium dodecyl sulfate–polyacrylamide gel electrophoresis (SDS‒PAGE) along with a protein ladder (Cat. No. PM008-0500, GeneDirex, Taiwan). The proteins were transferred to a 0.2 μm PVDF membrane (REF.03010040001, Sigma Aldrich, St. Louis, MO, USA) by a Mini-PROTEAN® Tetra Cell and Mini Trans-Blot (Bio-Rad) in transfer buffer (Bio-Rad Tris/Glycine transfer buffer Cat. #1610734) for 45 min at 100 V and 350 mA. β-actin (REF. No. MA5-11869; Invitrogen) was detected as a housekeeping protein against the Caspase-3 mAb (REF. No. 9662 S, Cell Signaling, Danvers, MA, USA) at a 1:1000 dilution via horseradish peroxidase-conjugated anti-mouse IgG (61-6520; Invitrogen) and anti-rabbit IgG (31460; Invitrogen) diluted 1:3000. Bands were detected via SuperSignal™ West Pico PLUS Chemiluminescent Substrate enhanced chemiluminescence (ECL, REF. 34577, Thermo Scientific, USA). Images were captured with a Bio-Rad ChemiDoc gel documentation imaging system and analyzed by Image Lab (Bio-Rad 6.1).

[5] = Cytotoxicity screening via crystal violet assay; type: cell-based; details: African green monkey, Vero cells
Experimental: A volume of 100 µL of cell suspension containing 10^4 cells was placed in each well of a 96-well plate. The plates containing the cells were then placed in a 5% humidified CO2 incubator at 37 °C for 24 h to allow the cells to form a confluent monolayer. By twofold serial dilution, each compound was diluted in 0.01 mL of medium, starting with a concentration of 1000 µg/ml. The diluted compounds were then cultured for 72 h at 37 °C in an environment with 5% CO2. Each concentration was tested 3 times. After the incubation period, the supernatant was discarded, and the cells were washed with 1x phosphate-buffered saline (PBS). The cells were then fixed with 100 µL of 10% formaldehyde and incubated at room temperature for 20 min. The cells were subsequently washed five times with running water. Next, 50 µL of a 0.1% solution of crystal violet dye (LOBA CHEMIE. LTD; C.I.No. 42555) was added to each well and incubated for 15 min. The cell monolayers were washed again and allowed to air dry. Finally, the crystal violet dye was dissolved by adding 200 µL of methanol, and the mixture was incubated for 20 min. The absorbance was measured via an ELISA plate reader (FLUOstar Omega Ω) at a wavelength of 570 nm. Cell viability was calculated as a percentage of the average optical density of the cell controls, which was set to 100%. The 50% cytotoxic concentration (CC50) was calculated via mean dose‒response curves via GraphPad Prism.

[6] = system: herpes simplex virus type 2 (HSV-2); assay: Inhibition mechanism of action: virucidal; type: cell-based, human herpes simplex virus type 2; details: compound mixed with HSV-2 (MOI = 1) 1 h at room temperature before inoculation of Vero cells, 72 h, MTT
Experimental: as §1

IC50 [2] [µg/mL]	SMILES	inhibition of HSV-2 adsorption [1] [%]	inhibition of HSV-2 replication [3] [%]	Caspase-3 protein expression level vs HSV-2 virus control [4]	CC50 at 72 h [5] [µg/mL]	inhibition by virucidal mechanism [6] [%]	SI [2]
974 (≈ 2970 µM)	N#CC1(/N=N/c2ccccc2)C(=O)NC(=S)NC12CCCCC2 (stereo not drawn) [Compound 5a]	–	–	–	43.9 (≈ 134 µM)	–	0.045
536 (≈ 1320 µM)	N#CC1(/N=N/c2ccc(S(N)(=O)=O)cc2)C(=O)NC(=S)NC12CCCCC2 (stereo not drawn) [Compound 5b]	–	–	–	124 (≈ 306 µM)	–	0.231
217 (≈ 449 µM)	N#CC1(/N=N/c2ccc(S(=O)(=O)Nc3ccccn3)cc2)C(=O)NC(=S)NC12CCCCC2 (stereo not drawn) [Compound 5d]	–	–	–	466 (≈ 963 µM)	–	2.14
346 (≈ 956 µM)	N#CC1(/N=N/c2ccc(Cl)cc2)C(=O)NC(=S)NC12CCCCC2 (stereo not drawn) [Compound 5e]	–	–	–	103 (≈ 284 µM)	–	0.296
399 (≈ 814 µM)	N#CC1(/N=N/c2ccc(S(=O)(=O)Nc3nccs3)cc2)C(=O)NC(=S)NC12CCCCC2 (stereo not drawn) [Compound 5f]	–	–	–	107 (≈ 219 µM)	–	0.268
53.8 (≈ 116 µM)	CC(=O)C(SC1NC(=O)C(C#N)(/N=N/c2ccc(Cl)cc2)C2(CCCCC2)N1)C(C)=O (stereo not drawn) [Compound 6a]	–	–	–	62.4 (≈ 135 µM)	–	1.15
5410 (≈ 10700 µM)	CC(=O)C(SC1NC(=O)C(C#N)(/N=N/c2ccc(S(N)(=O)=O)cc2)C2(CCCCC2)N1)C(C)=O (stereo not drawn) [Compound 6b]	–	–	–	940 (≈ 1860 µM)	–	0.173
749 (≈ 1280 µM)	CC(=O)C(SC1NC(=O)C(C#N)(/N=N/c2ccc(S(=O)(=O)Nc3ccccn3)cc2)C2(CCCCC2)N1)C(C)=O (stereo not drawn) [Compound 6c]	–	–	–	42.1 (≈ 72.1 µM)	–	0.056

SMILES	IC50 [2] [µg/mL]	inhibition of HSV-2 adsorption [1] [%]	inhibition of HSV-2 replication [3] [%]	Caspase-3 protein expression level vs HSV-2 virus control [4]	CC50 at 72 h [5] [µg/mL]	inhibition by virucidal mechanism [6] [%]	SI [2]
CSC1NC(=O)C(C#N)C2(CCCCC2)N1 (stereo not drawn) [Compound 2]	130 (≈ 544 µM)	32	26	decreased; also recorded: slight changes	566 (≈ 2360 µM)	8	–
CC(=O)C(SC1NC(=O)C(C#N)C2(CCCCC2)N1)C(=O)Nc1ccccc1 (stereo not drawn) [Compound 3, 2-((5-cyano-4-oxo-1,3-diazaspiro[5.5]undecan-2-yl)thio)-3-oxo-N-phenylbutanamide]	45.4 (≈ 113 µM)	–	34	decreased; also recorded: significant decrease	509 (≈ 1270 µM)	8	–
N#CC1(/N=N/c2ccc(S(=O)(=O)Nc3ncccn3)cc2)C(=O)NC(=S)NC12CCCCC2 (stereo not drawn) [Compound 5c]	13.9 (≈ 28.8 µM)	42	30	decreased; also recorded: slight changes	53.7 (≈ 111 µM)	15	3.84
